Source: US6337317B1, “Antimicrobial peptides and methods of use thereof” (priority 2000, dated 2002)
Where a SMILES comes first, the peptide text is derived from it.

Assays:
[1] = test system: E. coli 0111:B4 LPS induced production of TNF-α in RAW macrophages; assay: Reduction of LPS-induced TNF-α in RAW 264.7 macrophages (ELISA); format: cell-based, murine; conditions: for Inhibition of TNF-α (%): peptide 20 μg/ml, LPS 100 ng/ml, RAW 264.7, 6 hours
Description: (§1) The ability of invention peptides to reduce LPS-induced tumor necrosis factor (TNF) production was tested in an in vitro assay. The murine macrophage cell line RAW 264.7 was obtained from American Type Culture Collection (Manassas, Va.) and grown in DMEM medium supplemented with 10% fetal calf serum. The cells were plated at a density of 10^6 cells/well in 24 well plates, incubated overnight, then washed with fresh medium. E. coli 0111 :B4 (100 ng/ml) was added at time 0 to RAW macrophages. Invention peptides […]/m were added at time 0, 30 and 60 minutes and the cells were stimulated for 6 hours. Levels of TNF and interleukin-6 (IL-6) were measured after 6 hours.

[2] = test system: E. coli 0111:B4 LPS induced production of IL-6 in RAW macrophages; assay: Reduction of LPS-induced IL-6 in RAW 264.7 macrophages (ELISA); format: cell-based, murine; conditions: for Inhibition of IL-6 (%): peptide 20 μg/ml, LPS 100 ng/ml, RAW 264.7, 6 hours
Description: as §1

Human Red Blood Cells = assay: Hemolytic assay; format: cell-based; conditions: red blood cells
Description: The toxicity of invention peptides can be assessed using a hemolytic assay in which the ability of the peptides to lyse human red blood cells is assessed (Zhang et al. (1999) Biochemistry 38:8102-8111; and Examples section).
Hemolytic activity of invention peptides was tested against human red blood cells. Freshly collected human blood treated with heparin was centrifuged to remove the buffy coat, and the erythrocytes thereby obtained were washed three times in saline (0.85% NaCl). Serial dilutions of the peptides in saline were prepared in round-bottomed microtiter plates using total volumes of 100 μl. Red blood cells were diluted with saline to 1/25 of a packed cell volume, and 50 μl of cells were added to each well. Plates, while rocking, were incubated at 37° C., and the concentration of the peptide required for lysis after 4 h was taken as the minimal hemolytic concentration.

[3] = Dansyl polymyxin B displacement assay (binding affinity for LPS); set-up: species or system Escherichia coli; conditions: for Imax: maximal displacement, 100% = that observed with polymyxin B; for IC50: peptide concentration reducing bound dansyl polymyxin B (10 μM) by 50% of maximal displacement, read-out: I50
Description: To determine whether invention peptides are able to interact with the LPS of Gram-negative bacterial outer membrane, the binding affinity of peptide for LPS was determined using a dansyl polymyxin B displacement assay (Moore et al. (1986) Antimicrobial Agents Chemother. 29:496-500). The assay uses dansyl polymyxin, a cationic probe that is highly fluorescent only when bound and LPS isolated from E. coli. UB1005. […] Maximal displacement of LPS was expressed as a percentage where 100% displacement of dansyl polymyxin B was taken as that observed with polymyxin B.

[4] = test system: intact cells of E. coli UB1005; assay: NPN uptake assay, outer membrane permeabilization; format: cell-based, Escherichia coli; conditions: peptide concentration leading to 50% of maximal increase in NPN uptake
Description: The outer membrane permeabilization activity of invention peptides was determined by the 1-N-phenylnapthylamine (NPN) uptake assay of Loh et al. ((1984) Antimicor. Agents Chemother. 26:546-551), using intact cells of E. coli UB1005.
(§2) The cytoplasmic membrane depolarization activity of the peptides was determined (Wu and Hancock (1999) J. Biol. Chem. 274:29-35) using the membrane potential sensitive dye 3,3-dipropylthiacarbocyanine diSC35 (28) and E. coli DC2. Bacterial cells in mid-log phase were centrifuged, washed in 5 mM HEPES, pH 7.8, and resuspended in the same buffer to an OD600 of 0.05. A stock solution of diSC35 was added to a final concentration of 0.4 μM and quenching was allowed to occur at room temperature for 20-30 min. Then KCl was added to the cell suspension to a final concentration of 100 mM to equilibrate the cytoplasmic and external K^+ concentrations. A 2-mL cell suspension was placed in a 1 cm cuvette and the desired concentration of tested peptide was added. Changes in fluorescence due to the disruption of the membrane potential in the cytoplasmic membrane were continuously recorded using a Perkin-Elmer model 650-10S spectrofluorimeter at an excitation wavelength of 622 nm and an emission wavelength of 670 nm. The concentration of peptide leading to a 50% of maximal increase in NPN uptake was recorded as the P50.
Therefore, an increase in fluorescence in the presence of a peptide indicates the ability of peptide to permeabilize the bacterial outer membrane.

[5] = LPS-induced endotoxemia in galactosamine-sensitized mice; format: in vivo; conditions: 200 μg peptide intraperitoneally, groups of 10 mice, up to 24 h
Description: Bacterial endotoxin (LPS) is highly toxic and can cause high mortality in both humans and animals when released during Gram-negative bacterial infection. Galactosamine-treated mice exposed to moderate does of endotoxin typically die from endotoxic shock within 17 hours following exposure. Invention peptides can be tested for their ability to protect mice against endotoxin-induced death (see Examples section). The anti-endotoxic activity of invention peptides also can be tested in an in vitro assay using a macrophage cell line (Gough et al. (1996) Infect. Immun. 64:4922-4927; and Examples section).
The ability of invention peptides to protect against LPS-induced endotoxemia was assessed in vivo. Mice (8-10 weeks old) were injected intraperitoneally with […] D-galactosamine (Dgal) to sensitize them to LPS according to the method of Galanos (Galanos et al. (1979) Proc. Natl. Acad. Sci., USA, 76:5939-5943). Endotoxic shock was induces by intraperitoneal injections of 3 μg/mL E. coli 111 :B4 LPS in phosphate-buffered saline (PBS). Invention peptides (200 μg/100 μl sterile water) were injected intraperitoneally at a separate site within 10 min of LPS injection, and survival was monitored up to 24 h following injection.

P. aeruginosa M2 = assay: P. aeruginosa infection in neutropenic mouse model; format: in vivo; conditions: neutropenic CD-1 mice; for Mean Time to Death: 200 μg peptide intraperitoneally 30 min after infection; for Survival (%), P. aeruginosa infection: 200 μg peptide intraperitoneally, groups of 5 mice, assessed 24 to 72 hours
Description: Invention peptides were assayed for their ability to protect against P. aeruginosa infection in a neutropenic mouse mode. Female CD-1 mice, made neutropenic by three injections of cyclophosphamide (see Gough et al., (1996) Infect. Immun. 64:4922-4927) were injected intraperitoneally with a 100% lethal dose of P. aeruginosa M2 (approximately 200 organisms). Thirty minutes later, mice were injected intraperitoneally with invention peptides (200 μg/100 μl) Survival was assessed 24 to 72 hours later.

E. coli DC2 = assay: Cytoplasmic membrane depolarization, diSC35 assay; format: cell-based, Escherichia coli; conditions: 0.25 μg/ml (1×MIC)
Description: The arrowhead indicates the time at which 0.25 μg/ml peptide was added. PV5: SEQ ID NO:11; PV7: SEQ ID NO:4; and PV8: SEQ ID NO:3.
as §2

Compound	Inhibition of TNF-α (%) [1] [%]	Inhibition of IL-6 (%) [2] [%]	hemolytic activity (Human Red Blood Cells)	Imax [3] [%]	IC50 [3] [µM]	P50 [4] [µg/mL]	Survival (%), LPS-Endotoxemia [5] [%]	Mean Time to Death (P. aeruginosa M2) [h]	Survival (%), P. aeruginosa infection (P. aeruginosa M2) [%]	inhibition of TNF-α production ([1]; 20 μg/ml)	inhibition of IL-6 production ([2]; 20 μg/ml)	diSC35 dye release from cells (E. coli DC2)
CC(C)[C@@H]1NC(=O)[C@H](CCCNC(=N)N)NC(=O)[C@H](Cc2ccccc2)NC(=O)[C@@H](NC(=O)[C@H](Cc2c[nH]c3ccccc23)NC(=O)[C@H](CCCNC(=N)N)NC(=O)[C@@H](N)Cc2ccccc2)CSSC[C@@H](C(=O)N[C@@H](CCCNC(=N)N)C(N)=O)NC(=O)[C@H](CCCCN)NC(=O)[C@H](Cc2ccc(O)cc2)NC(=O)[C@H](CCCNC(=N)N)NC(=O)[C@@H]2CSSC[C@H](NC1=O)C(=O)N[C@@H](Cc1ccc(O)cc1)C(=O)N[C@@H](CCCCN)C(=O)NCC(=O)N[C@@H](CCCNC(=N)N)C(=O)N2 [SEQ ID NO:3, FRWCFRVCYKGRCRYKCR] (HELM PEPTIDE1{F.R.W.C.F.R.V.C.Y.K.G.R.C.R.Y.K.C.R.[am]}$PEPTIDE1,PEPTIDE1,4:R3-17:R3|PEPTIDE1,PEPTIDE1,8:R3-13:R3$$$V2.0)	55 ± 5	70 ± 6	show hemolytic activity	93	4.9	3.9	20	>72	60	–	–	–
CC(C)[C@@H]1NC(=O)[C@H](CCCNC(=N)N)NC(=O)[C@H](Cc2ccccc2)NC(=O)[C@@H](NC(=O)[C@H](Cc2c[nH]c3ccccc23)NC(=O)[C@H](CCCNC(=N)N)NC(=O)[C@@H](N)CCCNC(=N)N)CSSC[C@@H](C(=O)N[C@@H](CCCNC(=N)N)C(N)=O)NC(=O)[C@H](CCCCN)NC(=O)[C@H](Cc2ccc(O)cc2)NC(=O)[C@H](CCCNC(=N)N)NC(=O)[C@@H]2CSSC[C@H](NC1=O)C(=O)N[C@@H](Cc1ccc(O)cc1)C(=O)N[C@@H](CCCCN)C(=O)NCC(=O)N[C@@H](Cc1ccccc1)C(=O)N2 [SEQ ID NO:4, RRWCFRVCYKGFCRYKCR] (HELM PEPTIDE1{R.R.W.C.F.R.V.C.Y.K.G.F.C.R.Y.K.C.R.[am]}$PEPTIDE1,PEPTIDE1,4:R3-17:R3|PEPTIDE1,PEPTIDE1,8:R3-13:R3$$$V2.0)	61 ± 5	77 ± 6	show hemolytic activity	76	5.7	4.1	40	61	40	–	–	–
CC(C)[C@@H]1NC(=O)[C@H](CCCNC(=N)N)NC(=O)[C@H](Cc2ccccc2)NC(=O)[C@@H](NC(=O)[C@H](Cc2c[nH]c3ccccc23)NC(=O)[C@H](CCCNC(=N)N)NC(=O)[C@@H](N)CCCNC(=N)N)CSSC[C@@H](C(=O)N[C@@H](CCCNC(=N)N)C(N)=O)NC(=O)[C@H](CCCCN)NC(=O)[C@H](CCCNC(=N)N)NC(=O)[C@H](Cc2ccc(O)cc2)NC(=O)[C@@H]2CSSC[C@H](NC1=O)C(=O)N[C@@H](Cc1ccc(O)cc1)C(=O)N[C@@H](CCCNC(=N)N)C(=O)NCC(=O)N[C@@H](CCCNC(=N)N)C(=O)N[C@@H](Cc1ccccc1)C(=O)N2 [SEQ ID NO:11, RRWCFRVCYRGRFCYRKCR] (HELM PEPTIDE1{R.R.W.C.F.R.V.C.Y.R.G.R.F.C.Y.R.K.C.R.[am]}$PEPTIDE1,PEPTIDE1,4:R3-18:R3|PEPTIDE1,PEPTIDE1,8:R3-14:R3$$$V2.0)	90 ± 6	91 ± 4	show hemolytic activity	87	3	3.7	50	57	40	best inhibitor	best inhibitor	unable to cause a significant level of dye release
Polymyxin B [reference compound]	–	–	–	100	5.6	–	–	–	–	–	–	–
